Results from patent US9181309B1, “Peptide regulation of maize defense responses” (The United States of America, as represented by the …, priority 2011, dated 2015).

Experiments:
[1] = system: Aspergillus niger, Trichoderma viride, Rhizopus sp., Penicillium sp., Aspergillus flavus and Fusarium graminearum; assay type: cell-based, fungi isolated from germinating maize kernels; conditions: for effect on fungal growth: 1 mM in PDA; for growth of fungal pathogens: 10 and 3.3 mM in PDA
[2] = system: Pseudomonas syringae pv. tomato DC3000 and Xanthomonas campestris pv. vesicatoria; assay type: cell-based
[3] = system: defense metabolites in maize leaves; conditions: in vivo; cited from earlier work
[4] = system: jasmonic acid and ethylene production in maize leaves; assay: Phytohormone (JA, ET) production in treated leaves; assay type: in vivo, Zea mays; conditions: low equivalent quantities of either elicitor
From the text: A further embodiment is ZmPEP3 regulated production of defense-related metabolites. The elicitor-induced phytohormones JA and ethylene (ET) function as signals integral to initiation of protective responses against pathogens and herbivores (Howe and Jander, Annu Rev Plant Biol. 59:41, 2008).

[5] = system: defense metabolites in maize leaves; assay: Accumulation of defense metabolites within treated leaves (internal pools); assay type: in vivo, Zea mays; conditions: following treatment
From the text: Induced terpene production is vital to anti-herbivore defenses in many plant species (Unsicker et al., Curr Opin Plant Biol. 12:479, 2009; Tholl, Curr Opin Plant Biol. 9:297, 2006; Keeling and Bohlmann, New Phytol 170:657, 2006). […] Expression of genes encoding the relevant biosynthetic enzymes, Anthranilic Acid Methyl Transferase 1 (AAMT1) and Indole-Glycerol Phosphate Lyase (IGL) were induced by both peptide and the insect elicitor ([…]., Plant Physiol 153:1795, 2010; Frey et al., Proc Natl Acad Sci USA. 97:14801, 2000). In addition to proteinaceous defenses, maize benzoxazinoids contribute to direct defenses against both herbivores and pathogens ([…] Agric Food Chem 57:1677, 2009). […] Oikawa et al., Phytochemistry. 56:669, 2001; Huffaker et al., Plant Physiol. 155:1325, 2011). […] It is hypothesized that simultaneous activation of both IGL and BX1 by ZmPep3 results in increased flux through the benzoxazinoid pathway to produce HDMBOA-Glc.

Cotesia marginiventris = assay: Olfactometer assay of parasitoid wasp attraction to pretreated leaves; assay type: in vivo; conditions: naive C. marginiventris
From the text: The generalist parasitoid Cotesia marginiventris attacks many Lepidopteran species including S. exigua and is attracted to herbivory-induced maize volatiles (Turlings et al., Science 250:1251, 1990). Precisely which components are attractive has been difficult to determine, and the wasps respond strongly to unidentified minor components when subjected to gas chromatograph-coupled electroantennography (Gouinguene et al., J Chem Ecol. 31:1023, 2005). To determine whether the ZmPep3-induced blend was attractive to naïve C. marginiventris, olfactometer assays were conducted with leaves pretreated with ZmPep3, Gln-18:3 or water for 16 h. To ensure that any preference was due to elicited plant responses and not to an inherent attraction or repellence to any treatment substance, leaves treated at time of assay were used as controls. […] Thus, ZmPep3-regulated responses are sufficient to generate effective indirect defenses against Lepidopteran herbivores.

[6] = system: herbivore defense genes in maize leaves; assay: Real time qPCR / qRT-PCR of defense and phytohormone biosynthesis genes in treated leaves

C[C@@H]1[C@H](O)[C@@H](C)/C=C/C=C/C=C/C=C/C=C/C=C/C=C/[C@H](O[C@@H]2O[C@H](C)[C@@H](O)[C@H](N)[C@@H]2O)C[C@@H]2O[C@](O)(C[C@@H](O)C[C@@H](O)[C@H](O)CC[C@@H](O)C[C@@H](O)CC(=O)O[C@H]1C)C[C@H](O)[C@H]2C(=O)O [amphotericin B, reference compound]
fungal growth on antimycotic-supplemented medium ([1]; three days after inoculation): have not spread from the center well | bacterial growth on antimycotic-supplemented medium [2]: proliferated unaffected

ZmPEP1: previously identified maize plant elicitor peptide VRRRPTTPGRPREGSGGNGGNHH (SEQ ID NO: 1) (Zea mays)
HDMBOA-Glc induction (literature) [3]: induced

CC/C=C\C[C@H]1C(=O)CC[C@@H]1CC(=O)O [JA, jasmonic acid]
HDMBOA-Glc induction (literature) [3]: induced

C=CC(C)(O)CCC=C(C)C (centres unmarked) [linalool]
effect on fungal growth [1]: reduced | growth of fungal pathogens [1]: prevented growth | effect on bacterial (microbial) growth [2]: reduced | growth of bacterial pathogens [2]: prevented growth

hexenal
effect on fungal growth [1]: reduced | growth of fungal pathogens [1]: prevented growth | effect on bacterial (microbial) growth [2]: reduced | growth of bacterial pathogens [2]: prevented growth

c1ccc2[nH]ccc2c1 [indole]
effect on fungal growth [1]: moderate limiting effect | growth of fungal pathogens [1]: prevented growth | bacterial growth at the lowest concentration tested [2]: particularly effective at limiting bacterial growth | growth of bacterial pathogens [2]: prevented growth

C=CC(C)(O)CCC=C(C)CCC=C(C)C (centres unmarked) [Nerolidol, nerolidol]
fungal (microbial) growth at any concentration ([1]; 10 mM to 0.3 mM): did not limit microbial growth | sporulation of all fungi ([1]; all concentrations tested): strong inhibitor of sporulation | bacterial (microbial) growth at any concentration [2]: did not limit microbial growth

CC/C=C\C/C=C\C/C=C\CCCCCCCC(=O)N[C@@H](CCC(N)=O)C(=O)O [Gln-18:3, N-Linolenoyl-L-glutamine, reference compound]
JA and ET synthesis [4]: elicitation of JA and ET synthesis | anthranilate and indole in leaves [5]: increased | wasp preference for leaves pretreated 16 h vs leaves treated at time of assay (Cotesia marginiventris): did not display a statistically significant preference | BX1 and BX2 expression by qRT-PCR ([6]; 12 h post-treatment): expressed | expression of genes encoding Terpene Synthases (TPS) 10 and 23 ([6]; equivalent molar concentrations): strongly activate expression | expression of AAMT1 and IGL genes ([6]; in vivo): induced | accumulation of transcripts for ACC Oxidase, Allene Oxide Synthase and Allene Oxide Cyclase ([6]; low equivalent quantities of elicitor): significantly increased accumulation of transcripts
